Reference: patent US20140113931A1, “SUBSTITUTED PICOLINAMIDE KINASE INHIBITORS” (Portola Pharmaceuticals, Inc., priority 2012, published 2014)

Target: T1, full length active recombinant SYK enzyme (Homo sapiens, UniProt P43405)
T1 construct: full length active recombinant SYK enzyme (Millipore, CA); purchased Millipore, CA
Assay: Inhibition of Syk tyrosine phosphorylation activity (LANCE TR-FRET kinase assay)
Assay type: biochemical
Settings: 1 nM active SYK enzyme, 550 nM SYK-substrate, 100 μM ATP, 1 hour at room temperature
Description: The in vitro and in vivo human Syk activities of the inventive compounds can be determined by various procedures known in the art, such as a test for their ability to inhibit the activity of human plasma Syk. […] The IC50 value is the concentration (in nM) of the compound required to provide 50% inhibition of human Syk proteolytic activity.
An in vitro assay for detecting and measuring inhibition activity against Syk is as follows:
SYK tyrosine phosphorylation activity is measured using the LANCE™ Technology developed by Perkin Elmer Life and Analytical Sciences (Boston, Mass.). LANCE™ refers to homogeneous time resolved fluorometry applications using techniques such as time-resolved fluorescence resonance energy transfer assay (TR-FRET) (see generally for procedures in Perkin Elmer Application Note—How to Optimize a Tyrosine Kinase Assay Using Time Resolved Fluorescence-Based LANCE Detection, wwww.perkinelmer.com/lifesciences). The assay principle involves detection of a phosphorylated substrate using energy transfer from a phosphospecific europium-labeled antibody to streptavidin-allophycocyanin as an acceptor.
Molecules are reconstituted in 30% DMSO and serially diluted 1:3 with the final dilution containing DMSO in the absence of the candidate molecule. The final DMSO concentration in the assay is 3%. Kinase assays are performed as a two part reaction. The first reaction is a kinase reaction and which comprises of a candidate molecule, full length active recombinant SYK enzyme (Millipore, CA) and biotin-labeled SYK-specific substrate biotin-DEEDYESP-OH. The second reaction involves termination of the kinase reaction and the simultaneous addition of the detection reagents-europium-labeled anti-phosphotyrosine reagent (Eu-W1024-PY100, Perkin Elmer, Boston, Mass.) and Streptavidin-Allophycocyanin detection reagent (SA-APC, Prozyme, CA). The kinase reaction is performed in a black U-bottom 96-well microtitre plate. The final reaction volume is 50 μL and contains a final concentration of 1 nM active SYK enzyme, 550 nM SYK-substrate, and 100 μM ATP diluted in a buffer containing 50 mM Tris pH 7.5, 5 mM MgCl2, and 1 mM DTT. The reaction is allowed to proceed for 1 hour at room temperature. The quench buffer contains 100 mM Tris pH 7.5, 300 mM NaCl2, 20 mM EDTA, 0.02% Brij35, and 0.5% BSA. The detection reagents are added to the reaction mixture at the following dilutions-1:500 for Eu-W1024-PY100 and 1:250 for SA-APC. The kinase reaction is terminated by the addition of 50 μL quench buffer containing the detection reagents. The detection is allowed to proceed for 1 hr at room temperature. Detection of the phosphorlated substrate in the absence and presence of inhibitors is measured in the TR-FRET instrument, Analyst HT (Molecular Probes, Sunnyvale, Calif.) and the condition for measurements are set up using CriterionHost Release 2.0 (Molecular Probes, Sunnyvale, Calif.). The settings used are a follows: excitation 360 nm, emission 665-7.5 nm, beam splitter 350 nm 50/50, flash 100 pulses, delay 60 us, integration 400 us, z-height 2 mm. Inhibition of SYK-tyrosine kinase activity is calculated as the maximum response observed in the presence of inhibitor, compared to that in the absence of inhibitor. IC50s were derived by non-linear regression analysis.

Row | IC50 [µM] | SMILES
1 | 0.001 to 0.01 | Cc1cc(Nc2cc(N[C@H](CC(C)C)C(N)=O)cnc2C(N)=O)sn1 [Example 1, (R)-5-(1-amino-4-methyl-1-oxopentan-2-ylamino)-3-(3-methylisothiazol-5-ylamino)picolinamide]
2 | 0.01 to 0.1 | Cc1cc(Nc2cc(N[C@@H]3CCCC(F)(F)[C@@H]3N)cnc2C(N)=O)sn1 [Example 2, 5-((1R,2R)-2-amino-3,3-difluorocyclohexylamino)-3-(3-methylisothiazol-5-ylamino)picolinamide]
3 | 0.001 to 0.01 | Cc1cc(Nc2cc(N[C@H](CC3CC3)C(N)=O)cnc2C(N)=O)sn1 [Example 3, (R)-5-(1-amino-3-cyclopropyl-1-oxopropan-2-ylamino)-3-(3-methylisothiazol-5-ylamino)picolinamide]
4 | 0.001 to 0.01 | Cc1cc(Nc2cc(N[C@@H]3CCCC[C@@H]3N)cnc2C(N)=O)sn1 [Example 4, 5-((1R,2S)-2-aminocyclohexylamino)-3-(3-methylisothiazol-5-ylamino)picolinamide]
5 | 0.01 to 0.1 | CC[C@@H](Nc1cnc(C(N)=O)c(Nc2cc(C)ns2)c1)C(N)=O [Example 5, (R)-5-(1-amino-1-oxobutan-2-ylamino)-3-(3-methylisothiazol-5-ylamino)picolinamide]
6 | 0.01 to 0.1 | NC(=O)c1ncc(N[C@@H]2CCCC[C@@H]2N)cc1Nc1cccc(-n2nccn2)c1 [Example 6, 3-(3-(2H-1,2,3-triazol-2-yl)phenylamino)-5-((1R,2S)-2-aminocyclohexylamino)picolinamide]
7 | 0.01 to 0.1 | Cc1cc(Nc2cc(N[C@@H](C(N)=O)C(C)C)cnc2C(N)=O)sn1 [Example 7, (R)-5-(1-amino-3-methyl-1-oxobutan-2-ylamino)-3-(3-methylisothiazol-5-ylamino)picolinamide]
8 | 0.001 to 0.01 | NC(=O)c1ncc(N[C@@H]2CCCC[C@@H]2N)cc1Nc1cc(-c2ccccc2)no1 [Example 8, 5-((1R,2S)-2-aminocyclohexylamino)-3-(3-phenylisoxazol-5-ylamino)picolinamide]
9 | 0.1 to 1 | NC(=O)c1ncc(N[C@@H]2CCCC(F)(F)[C@@H]2N)cc1Nc1cc(-c2ccccc2)no1 [Example 9, 5-((1R,2R)-2-amino-3,3-difluorocyclohexylamino)-3-(3-phenylisoxazol-5-ylamino)picolinamide]
10 | 0.01 to 0.1 | Cc1cc(Nc2cc(N[C@@H]3CCCC[C@@H]3N)cnc2C(N)=O)on1 [Example 10, 5-((1R,2S)-2-aminocyclohexylamino)-3-(3-methylisoxazol-5-ylamino)picolinamide]
11 | 0.001 to 0.01 | CC(C)C[C@@H](Nc1cnc(C(N)=O)c(Nc2cc(-c3ccccc3)no2)c1)C(N)=O [Example 11, (R)-5-(1-amino-4-methyl-1-oxopentan-2-ylamino)-3-(3-phenylisoxazol-5-ylamino)picolinamide]
12 | 0.01 to 0.1 | NC(=O)c1ncc(N[C@@H]2CCCC[C@@H]2N)cc1Nc1ccc2cnccc2c1 [Example 12, 5-((1R,2S)-2-aminocyclohexylamino)-3-(isoquinolin-6-ylamino)picolinamide]
13 | 0.1 to 1 | NC(=O)c1ncc(N[C@@H]2CCCC[C@@H]2N)cc1Nc1cnc2ccccc2c1 [Example 13, 5-((1R,2S)-2-aminocyclohexylamino)-3-(quinolin-3-ylamino)picolinamide]
14 | 0.01 to 0.1 | NC(=O)c1ncc(N[C@@H]2CCCC[C@@H]2N)cc1Nc1ccc2ccncc2c1 [Example 14, 5-((1R,2S)-2-aminocyclohexylamino)-3-(isoquinolin-7-ylamino)picolinamide]
15 | 0.01 to 0.1 | NC(=O)c1ncc(N[C@@H]2CCCC[C@@H]2N)cc1Nc1ccc2cccnc2c1 [Example 15, 5-((1R,2S)-2-aminocyclohexylamino)-3-(quinolin-7-ylamino)picolinamide]
16 | 0.01 to 0.1 | CC(C)C[C@@H](Nc1cnc(C(N)=O)c(Nc2ccc3ncccc3c2)c1)C(N)=O [Example 16, (R)-5-(1-amino-4-methyl-1-oxopentan-2-ylamino)-3-(quinolin-6-ylamino)picolinamide]

Row | IC50 [µM] | SMILES
17 | 0.01 to 0.1 | CC(C)C[C@@H](Nc1cnc(C(N)=O)c(Nc2ccc3cnccc3c2)c1)C(N)=O [Example 17, (R)-5-(1-amino-4-methyl-1-oxopentan-2-ylamino)-3-(isoquinolin-6-ylamino)picolinamide]
18 | 0.01 to 0.1 | Cc1cc(Nc2cc(N[C@H](CC3CCCCC3)C(N)=O)cnc2C(N)=O)sn1 [Example 18, (R)-5-(1-amino-3-cyclohexyl-1-oxopropan-2-ylamino)-3-(3-methylisothiazol-5-ylamino)picolinamide]
19 | 0.001 to 0.01 | Cc1cc(Nc2cc(N[C@@H]3CCOC[C@@H]3N)cnc2C(N)=O)sn1 [Example 23, 5-((3R,4R)-3-aminotetrahydro-2H-pyran-4-ylamino)-3-(3-methylisothiazol-5-ylamino)picolinamide]
20 | 0.1 to 1 | Cn1cc(Nc2cc(N[C@@H]3CCCC[C@@H]3N)cnc2C(N)=O)cn1 [Example 24, 5-((1R,2S)-2-aminocyclohexylamino)-3-(1-methyl-1H-pyrazol-4-ylamino)picolinamide]
21 | 0.1 to 1 | NC(=O)c1ncc(N[C@@H]2CCCC[C@@H]2N)cc1Nc1cnn2ccccc12 [Example 25, 5-((1R,2S)-2-aminocyclohexylamino)-3-(pyrazolo[1,5-a]pyridin-3-ylamino)picolinamide]
22 | 0.01 to 0.1 | Cc1cc(Nc2cc(N[C@H]3CC[C@@H](N)CC3)cnc2C(N)=O)sn1 [Example 26, 5-((1S,4S)-4-aminocyclohexylamino)-3-(3-methylisothiazol-5-ylamino)picolinamide]
23 | 0.01 to 0.1 | NC(=O)c1ncc(N[C@@H]2CCCC[C@@H]2N)cc1Nc1ccc2ncccc2c1 [Example 27, 5-((1R,2S)-2-aminocyclohexylamino)-3-(quinolin-6-ylamino)picolinamide]
24 | 0.1 to 1 | NC(=O)c1ncc(N[C@@H]2CCCC[C@@H]2N)cc1Nc1cnsc1 [Example 28, 5-((1R,2S)-2-aminocyclohexylamino)-3-(isothiazol-4-ylamino)picolinamide]
25 | 0.01 to 0.1 | NC(=O)c1ncc(N[C@@H]2CCCC[C@@H]2N)cc1Nc1nc(-c2ccccc2)no1 [Example 29, 5-(((1R,2S)-2-aminocyclohexyl)amino)-3-((3-phenyl-1,2,4-oxadiazol-5-yl)amino)picolinamide]
26 | 0.01 to 0.1 | CC(C)C[C@@H](Nc1cnc(C(N)=O)c(Nc2nc(-c3ccccc3)no2)c1)C(N)=O [Example 30, (R)-5-((1-amino-4-methyl-1-oxopentan-2-yl)amino)-3-((3-phenyl-1,2,4-oxadiazol-5-yl)amino)picolinamide]
27 | 0.1 to 1 | Cc1nsc(Nc2cc(N[C@H](CC3CC3)C(N)=O)cnc2C(N)=O)c1I [Example 31, (R)-5-((1-amino-3-cyclopropyl-1-oxopropan-2-yl)amino)-3-((4-iodo-3-methylisothiazol-5-yl)amino)picolinamide]
28 | 0.001 to 0.01 | Cc1cc(Nc2cc(NC3(C(N)=O)CC3)cnc2C(N)=O)sn1 [Example 32, 5-(1-carbamoylcyclopropylamino)-3-(3-methylisothiazol-5-ylamino)picolinamide]
29 | 0.01 to 0.1 | CCc1cc(Nc2cc(N[C@@H](C(N)=O)C(C)C)cnc2C(N)=O)sn1 [Example 33, (R)-5-(1-amino-3-methyl-1-oxobutan-2-ylamino)-3-(3-ethylisothiazol-5-ylamino)picolinamide]
30 | 0.001 to 0.01 | NC(=O)c1ncc(N[C@@H]2CCCC[C@@H]2N)cc1Nc1cc(C2CC2)no1 [Example 34, 5-((1R,2S)-2-aminocyclohexylamino)-3-(3-cyclopropylisoxazol-5-ylamino)picolinamide]
31 | 0.01 to 0.1 | CC(C)[C@@H](Nc1cnc(C(N)=O)c(Nc2cc(C3CC3)no2)c1)C(N)=O [Example 35, (R)-5-(1-amino-3-methyl-1-oxobutan-2-ylamino)-3-(3-cyclopropylisoxazol-5-ylamino)picolinamide]
32 | 0.01 to 0.1 | CC(C)c1cc(Nc2cc(N[C@@H]3CCCC[C@@H]3N)cnc2C(N)=O)on1 [Example 36, 5-((1R,2S)-2-aminocyclohexylamino)-3-(3-isopropylisoxazol-5-ylamino)picolinamide]
